Paper PMC12256496, “An advancement in developmental and reproductive toxicity (DART) risk assessment: evaluation of a bioactivity and exposure-based NAM toolbox” (Frontiers in Toxicology, 2025)
Where two headings read alike, the source gives them in different places.

How the values were obtained:
[1] = Human in vivo PK data: concentration-dose ratio (CDR) and toxicokinetic variability factor (TKVF); set-up: 95% percentile (Conc-dose-ratio): unit not given here;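 note: Literature-pooled human in vivo PK data, plasma, serum or cord blood concentrations per daily dose, weighted by study population size across non-pregnant, pregnant and fetal groups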
[2] = tested on: humans; settings: ref Supplementary Data Sheet 1, cited from earlier work
[3] = tested on: developmental or reproductive toxicity in animal or human; settings: cited from earlier work
[4] = tested on: human induced pluripotent stem cell (hiPSC); assay: devTOX quickPredict (ornithine/cystine ratio, cell viability); format: cell-based; settings: at concentrations above the TDI
Description: devTOX quickPredict is a human induced pluripotent stem cell (hiPSC) -based assay that predicts the concentration at which a compound may elicit developmental toxicity. […] Assays were performed as described in [Palmer et al. (2013)] with modifications. Briefly undifferentiated hiPSCs are exposed to the compound for 48 h, with media and test article replacement every 24 h. Ornithine and […] concentrations were measured from the final 24-h treatment using Ultra-Performance Liquid Chromatography-High Resolution Mass Spectrometry (UPLC-HRMS). Cell viability was assessed after sample collection using the CellTiter-Fluor Cell Viability Assay (Promega). Dose-response analysis for the o/c ratio, cell viability, ornithine response and cystine response were performed with GraphPad Prism (version 9.1 or newer, GraphPad Software). Each data set was fit with a nonlinear model. The standard model used for analysis is a four-parameter log-logistic nonlinear model. However, the Akaike information criterion (GraphPad Prism) was used to determine if an asymmetric (five-parameter) or multiphasic nonlinear model was a better fit for the data than the four-parameter model. The developmental toxicity potential (dTP, o/c ratio) and toxicity potential (TP, cell viability) concentrations were predicted from the respective dose-response curves using the hiPSCs cell developmental toxicity threshold (dTT, 0.85).

[5] = human
[6] = hepatic intrinsic clearance, CLint (PBK parameter); format: in vitro ADME
[7] = cited from earlier work
[8] = tested on: human developmental and reproductive toxicity; settings: cited from earlier work
[9] = Bioactivity exposure ratio (BER): minimum platform PoD / estimated Cmax
[10] = ref FSCJ, EFSA, SCF, JMPR as named in the cell; cited from earlier work
[11] = parental/systemic toxicity, not reproductive effects; ref Supplementary Data Sheet 1; cited from earlier work
[12] = evidence of developmental or reproductive toxicity in animal or human, irrespective of exposure/dose, ref Supplementary Data Sheet 1
[13] = Foetus, oral, combined (retinyl palmitate, dietary retinoids)
[14] = Non-Pregnant, oral, combined (retinyl palmitate, dietary retinoids)
[15] = Pregnant, oral, combined (retinyl palmitate, dietary retinoids)

In the case of CCOP(=S)(OCC)Oc1nc(Cl)c(Cl)cc1Cl [Chlorpyrifos], the “Mean Conc-dose -ratio” value ([1]; Non-Pregnant, oral) is given as 0.002 uM/(mg/day], the “level of the high exposure group associated with developmental neurotoxicity” value ([2]; prenatal exposure, cord blood biomonitoring) is given as “The high exposure CPF group (≥4.39 pg/g) was associated with developmental neurotoxicity” and the “DART Hazard Call” value [3] is given as “Toxic”.
In the case of CCCCOC(=O)c1ccccc1C(=O)OCCCC [Dibutyl phthalate (DBP), Dibutyl phthalate], the “DART Hazard Call” value [3] is given as “Toxic” and the “response in devTox quickPredict” value [4] is given as “positive response”.
In the case of CCCCOC(=O)c1ccccc1C(=O)OCCCC [Dibutyl phthalate], the “Renal Clearance” value [5] is reported as 0.2 L/h and the “Intrinsic Liver Clearance” value [6] is reported as 1887.4 L/h.
For CCOc1cc(CCC(C)=O)ccc1O [Ethylzingerone], the “Renal Clearance” value [5] is given as 2.012 L/h, the “DART Hazard Call” value [3] is given as “Non Toxic” and the “Aqueous Solubility” value ([7]; pH 6.25) is given as 7590 µg/mL. The “Exposure risk (DART risk classification)” value [8] was “Low Risk”.
In the case of CC(C)(C)c1ccc(CCOc2ncnc3ccccc23)cc1 [Fenazaquin], the “Renal Clearance” value [5] is given as 0.577 L/h, the BER ([9]; low-risk exposure scenario of the compound) is given as less than 1 and the “DART Hazard Call” value [3, 12] is given as “Non Toxic”. For the same compound, the ADI [10] was “ADI set by JMPR (0.05 mg/kg/day)”, the “NOAEL on which the ADI is based” value [11] was “No evidence of developmental or reproductive toxicity. ADI is based on the NOAEL from this study of 5 mg/kg/day but this was based on parental/systemic toxicity and not reproductive effects” and the “Aqueous Solubility” value ([7]; Solubility pH 7.01, median, ref [7],[8]) was 0.19 µg/mL. For the same compound, the “Exposure risk (DART risk classification)” value ([8]; Dietary, 3 mg/daily, oral, ref Supplementary Data Sheet 1) was “Low Risk”.
With CC1=C(/C=C/C(C)=C/C=C/C(C)=C/CO)C(C)(C)CCC1 [Retinol] the BER ([9]; low-risk scenario of normal dietary exposure to retinol and its metabolite) was less than 1, the “CDR fold difference to non-pregnant” value ([1]; Fetus population) was 0.82 and the TKVF ([1]; Fetus population, TKVF95 = p95 / weighted mean concentration-dose ratio) was 1.86. For the same compound, the “95% percentile (Conc-dose-ratio)” value [1, 13] was 2.85, the “Fold Difference to non-pregnant” value [1, 13] was 0.82 and the “Fold Difference to pregnant” value [1, 13] was 0.93. The “Mean Conc-dose -ratio” value [1, 13] was 1.54 uM/(mg/day], the TKVF [1, 13] was 1.86 and the “CDR fold difference to non-pregnant” value ([1]; Non-Pregnant population (reference)) was 1.00. The TKVF ([1]; Non-Pregnant population, TKVF95 = p95 / weighted mean concentration-dose ratio) was 2.32, the “95% percentile (Conc-dose-ratio)” value [1, 14] was 4.34 and the “Fold Difference to non-pregnant” value [1, 14] was 1.00. The “Mean Conc-dose -ratio” value [1, 14] was 1.87 uM/(mg/day], the TKVF [1, 14] was 2.32 and the “CDR fold difference to non-pregnant” value ([1]; Pregnant population) was 0.88. For the same compound, the TKVF ([1]; Pregnant population, TKVF95 = p95 / weighted mean concentration-dose ratio) was 1.64, the “95% percentile (Conc-dose-ratio)” value [1, 15] was 2.70 and the “Fold Difference to non-pregnant” value [1, 15] was 0.88. The “Fold Difference to pregnant” value [1, 15] was 1.00, the “Mean Conc-dose -ratio” value [1, 15] was 1.65 uM/(mg/day] and the TKVF [1, 15] was 1.64. For the same compound, the “exposure above which DART effects are seen in vivo” value [2] was “above 3,000 μg RE/day”, the “DART Hazard Call” value [3, 12] was “Toxic” and the “Exposure risk (DART risk classification)” value ([8]; Cosmetic, 0.05% in body lotion, dermal, ref Supplementary Data Sheet 1) was “Low Risk”. The “Exposure risk (DART risk classification)” value ([8]; Dietary, <10,000 IU, oral, ref Supplementary Data Sheet 1) was “Low Risk”.
For O=C1CCC(N2C(=O)c3ccccc3C2=O)C(=O)N1 (stereo not shown) [Thalidomide], the “95% percentile (Conc-dose-ratio)” value ([1]; human, in vivo, po) was 0.06, the “Mean Conc-dose -ratio” value ([1]; human, in vivo, po) was 0.036 uM/(mg/day] and the TKVF ([1]; human, in vivo, po) was 1.73. For the same compound, the “mortality at or shortly after birth” value ([2]; infants) was “Thalidomide is a powerful human teratogen, inducing a high frequency of severe and life-threatening birth defects, even after a single dose. Mortality at or shortly after birth has been reported in about 40% of infants”, the “DART Hazard Call” value [3, 12] was “Toxic” and the “Exposure risk (DART risk classification)” value ([8]; Pharmaceutical, 50 mg/daily, oral, ref Supplementary Data Sheet 1) was “High Risk”.
